Experimental findings from publication PMC8231556, “Inhibiting Endothelial Cell Function in Normal and Tumor Angiogenesis Using BMP Type I Receptor Macrocyclic Kinase Inhibitors” (Cancers, 2021) are described below.

Assay in all cases: radiometric kinase profiling (33 PanQinase)
Common to all, as to assay type: biochemical

The target of one assay is T1, CAMKK1 (Homo sapiens, UniProt Q8N5S9).
T1 construct: purchased Proqinase, Germany
As to conditions: read-out: Inhibitory effect (%) CAMKK1. A digest of the protocol:
(§1)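 Enzyme/substrate mixes were incubated with [γ-33P]-ATP and compound (added as a 0.1 μM solution in 10% DMSO) at 30 °C for 60 min, then stopped with H3PO4 and washed with NaCl. 33P incorporation was scintillation-counted, and residual activity (%) was normalized to untreated control and background.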

For a further assay, the target named is T2, CDK4_cyclinD1 (Homo sapiens, UniProt P11802).
T2 construct: purchased Proqinase, Germany
Particulars: read-out: Inhibitory effect (%) CDK4_cyclinD1. A digest of the protocol:
as §1

A further assay addresses T3, CDK8_cyclinC (Homo sapiens, UniProt P49336).
T3 construct: purchased Proqinase, Germany
As to conditions: read-out: Inhibitory effect (%) CDK8_cyclinC. A digest of the protocol: as §1

The next assay concerns the target T4, KDR (Homo sapiens, UniProt P35968).
T4 construct: purchased ProQinase (33PanQinase Activity Assay)
Particulars: read-out: Inhibitory effect (%) KDR. The method in brief:
as §1

The target in the next assay is T5, CLK2 (Homo sapiens, UniProt P49760).
T5 construct: purchased Proqinase, Germany
Particulars: read-out: Inhibitory effect (%) CLK2. The method in brief:
as §1

For the next assay, the target named is T6, CSNK2A1 (Homo sapiens, UniProt P68400).
T6 construct: purchased Proqinase, Germany
Particulars: read-out: Inhibitory effect (%) CSNK2A1. The method in brief: as §1

A further assay concerns the target T7, MAP3K7 (Homo sapiens, UniProt O43318).
T7 construct: purchased ProQinase (33PanQinase Activity Assay)
T7 sequence (O43318 1-303 limits assumed): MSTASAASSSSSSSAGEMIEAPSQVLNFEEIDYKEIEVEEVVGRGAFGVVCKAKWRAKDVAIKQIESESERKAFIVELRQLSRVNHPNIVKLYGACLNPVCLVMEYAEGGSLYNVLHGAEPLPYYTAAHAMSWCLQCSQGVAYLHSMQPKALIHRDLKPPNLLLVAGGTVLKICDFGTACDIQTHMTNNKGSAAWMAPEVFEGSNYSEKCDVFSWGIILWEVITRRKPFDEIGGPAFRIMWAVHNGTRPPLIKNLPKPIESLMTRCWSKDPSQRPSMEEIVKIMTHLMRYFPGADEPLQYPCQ
As to conditions: read-out: Inhibitory effect (%) MAP3K7. A digest of the protocol: as §1

The next assay deals with T8, EPHA5 (Homo sapiens, UniProt P54756).
T8 construct: purchased ProQinase (33PanQinase Activity Assay)
Particulars: read-out: Inhibitory effect (%) EPHA5. A digest of the protocol:
as §1

The next assay deals with T9, DNAPK (Homo sapiens, UniProt P78527).
T9 construct: purchased Proqinase, Germany
Particulars: read-out: Inhibitory effect (%) DNAPK. The method in brief:
as §1

Another assay addresses T10, GRK6 (Homo sapiens, UniProt P43250).
T10 construct: purchased ProQinase (33PanQinase Activity Assay)
Particulars: read-out: Inhibitory effect (%) GRK6. The method in brief: as §1

For another assay, the target named is T11, EGFR (Homo sapiens, UniProt P00533).
T11 construct: purchased Proqinase, Germany
Particulars: read-out: Inhibitory effect (%) EGFR. The method in brief:
as §1

Another assay deals with T12, DCLK2 (Homo sapiens, UniProt Q8N568).
T12 construct: purchased Proqinase, Germany
T12 sequence (Q8N568 1-766): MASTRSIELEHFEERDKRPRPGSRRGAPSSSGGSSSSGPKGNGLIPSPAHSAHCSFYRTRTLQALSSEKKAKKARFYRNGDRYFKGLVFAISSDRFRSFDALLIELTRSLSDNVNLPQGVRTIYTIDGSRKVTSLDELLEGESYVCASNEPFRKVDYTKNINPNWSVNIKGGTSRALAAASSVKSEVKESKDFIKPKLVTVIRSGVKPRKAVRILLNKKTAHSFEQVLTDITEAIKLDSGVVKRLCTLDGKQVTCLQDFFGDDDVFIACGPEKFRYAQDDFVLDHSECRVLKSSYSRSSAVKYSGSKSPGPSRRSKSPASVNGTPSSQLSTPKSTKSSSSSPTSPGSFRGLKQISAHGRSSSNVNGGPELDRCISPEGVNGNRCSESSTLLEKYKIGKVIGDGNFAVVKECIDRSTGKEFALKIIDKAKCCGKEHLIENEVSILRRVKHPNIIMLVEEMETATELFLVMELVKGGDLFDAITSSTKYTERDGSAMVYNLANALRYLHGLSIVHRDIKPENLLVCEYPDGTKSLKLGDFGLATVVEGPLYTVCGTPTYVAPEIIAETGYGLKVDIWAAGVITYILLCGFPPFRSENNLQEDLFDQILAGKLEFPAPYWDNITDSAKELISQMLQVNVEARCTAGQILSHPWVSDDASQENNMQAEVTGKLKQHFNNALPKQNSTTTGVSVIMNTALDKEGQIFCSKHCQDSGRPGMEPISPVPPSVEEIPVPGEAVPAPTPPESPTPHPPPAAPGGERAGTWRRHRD
Particulars: read-out: Inhibitory effect (%) DCLK2. The method in brief:
as §1

T6 sequence (P68400 whole entry): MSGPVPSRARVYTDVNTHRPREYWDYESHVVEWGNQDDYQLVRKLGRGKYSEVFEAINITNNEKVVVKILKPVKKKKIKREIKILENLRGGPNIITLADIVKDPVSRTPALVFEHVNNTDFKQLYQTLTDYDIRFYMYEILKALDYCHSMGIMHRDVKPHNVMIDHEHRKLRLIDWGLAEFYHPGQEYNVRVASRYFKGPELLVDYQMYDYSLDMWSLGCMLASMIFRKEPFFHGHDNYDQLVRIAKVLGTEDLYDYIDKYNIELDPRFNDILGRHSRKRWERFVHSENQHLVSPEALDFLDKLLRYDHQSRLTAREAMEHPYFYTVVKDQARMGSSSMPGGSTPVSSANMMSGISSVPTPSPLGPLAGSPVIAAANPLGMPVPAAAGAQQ
T1 sequence (Q8N5S9 whole entry): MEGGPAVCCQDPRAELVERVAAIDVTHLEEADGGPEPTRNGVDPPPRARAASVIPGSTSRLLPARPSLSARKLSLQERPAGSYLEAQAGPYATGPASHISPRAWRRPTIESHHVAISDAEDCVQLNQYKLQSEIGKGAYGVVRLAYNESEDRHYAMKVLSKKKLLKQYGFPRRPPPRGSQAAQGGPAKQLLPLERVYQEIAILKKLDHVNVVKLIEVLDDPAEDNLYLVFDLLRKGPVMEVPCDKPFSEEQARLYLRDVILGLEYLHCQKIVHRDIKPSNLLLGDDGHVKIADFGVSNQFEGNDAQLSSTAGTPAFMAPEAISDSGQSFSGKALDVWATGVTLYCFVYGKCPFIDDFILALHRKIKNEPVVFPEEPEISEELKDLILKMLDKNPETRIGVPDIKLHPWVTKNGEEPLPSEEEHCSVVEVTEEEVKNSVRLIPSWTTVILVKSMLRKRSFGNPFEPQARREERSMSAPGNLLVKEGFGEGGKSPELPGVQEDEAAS
T8 sequence (P54756 25-1037): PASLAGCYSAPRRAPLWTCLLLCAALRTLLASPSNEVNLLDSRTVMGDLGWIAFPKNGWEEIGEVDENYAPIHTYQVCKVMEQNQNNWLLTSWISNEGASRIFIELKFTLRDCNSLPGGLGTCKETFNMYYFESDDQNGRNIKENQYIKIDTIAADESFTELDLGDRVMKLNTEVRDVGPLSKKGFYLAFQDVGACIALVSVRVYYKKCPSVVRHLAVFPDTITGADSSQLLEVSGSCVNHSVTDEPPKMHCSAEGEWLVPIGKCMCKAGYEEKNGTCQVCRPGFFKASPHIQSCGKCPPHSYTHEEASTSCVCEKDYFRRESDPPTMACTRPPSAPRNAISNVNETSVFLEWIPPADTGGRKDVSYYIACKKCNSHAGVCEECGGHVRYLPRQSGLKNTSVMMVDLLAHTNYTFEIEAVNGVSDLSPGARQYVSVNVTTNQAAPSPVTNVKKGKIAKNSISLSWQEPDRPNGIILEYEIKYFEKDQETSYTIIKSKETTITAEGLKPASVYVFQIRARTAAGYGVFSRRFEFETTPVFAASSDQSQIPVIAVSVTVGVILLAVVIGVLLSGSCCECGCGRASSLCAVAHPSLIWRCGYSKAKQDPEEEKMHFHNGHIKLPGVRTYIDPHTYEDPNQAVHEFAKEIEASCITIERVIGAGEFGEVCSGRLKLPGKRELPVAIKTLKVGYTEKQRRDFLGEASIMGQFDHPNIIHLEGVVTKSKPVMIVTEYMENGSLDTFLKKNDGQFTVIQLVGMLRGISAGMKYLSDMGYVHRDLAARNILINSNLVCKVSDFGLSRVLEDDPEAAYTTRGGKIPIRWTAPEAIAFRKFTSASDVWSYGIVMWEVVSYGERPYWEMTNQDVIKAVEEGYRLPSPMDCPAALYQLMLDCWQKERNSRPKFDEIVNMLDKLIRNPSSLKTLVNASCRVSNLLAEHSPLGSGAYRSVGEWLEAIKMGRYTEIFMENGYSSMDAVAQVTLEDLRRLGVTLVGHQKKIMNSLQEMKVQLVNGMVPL
T5 sequence (P49760 whole entry): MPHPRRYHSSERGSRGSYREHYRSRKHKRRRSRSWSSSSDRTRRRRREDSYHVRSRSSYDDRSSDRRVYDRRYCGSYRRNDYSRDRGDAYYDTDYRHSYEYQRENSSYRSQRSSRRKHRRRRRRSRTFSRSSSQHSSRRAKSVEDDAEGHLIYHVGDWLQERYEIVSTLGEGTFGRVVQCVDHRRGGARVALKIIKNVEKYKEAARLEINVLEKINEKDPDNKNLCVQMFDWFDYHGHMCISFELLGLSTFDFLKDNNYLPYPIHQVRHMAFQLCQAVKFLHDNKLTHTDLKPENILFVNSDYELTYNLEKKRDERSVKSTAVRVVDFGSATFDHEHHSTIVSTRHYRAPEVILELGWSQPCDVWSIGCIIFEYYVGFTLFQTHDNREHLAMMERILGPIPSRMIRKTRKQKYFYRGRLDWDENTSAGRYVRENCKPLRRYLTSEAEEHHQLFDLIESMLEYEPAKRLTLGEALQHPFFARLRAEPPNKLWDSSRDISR
T3 sequence (P49336 whole entry): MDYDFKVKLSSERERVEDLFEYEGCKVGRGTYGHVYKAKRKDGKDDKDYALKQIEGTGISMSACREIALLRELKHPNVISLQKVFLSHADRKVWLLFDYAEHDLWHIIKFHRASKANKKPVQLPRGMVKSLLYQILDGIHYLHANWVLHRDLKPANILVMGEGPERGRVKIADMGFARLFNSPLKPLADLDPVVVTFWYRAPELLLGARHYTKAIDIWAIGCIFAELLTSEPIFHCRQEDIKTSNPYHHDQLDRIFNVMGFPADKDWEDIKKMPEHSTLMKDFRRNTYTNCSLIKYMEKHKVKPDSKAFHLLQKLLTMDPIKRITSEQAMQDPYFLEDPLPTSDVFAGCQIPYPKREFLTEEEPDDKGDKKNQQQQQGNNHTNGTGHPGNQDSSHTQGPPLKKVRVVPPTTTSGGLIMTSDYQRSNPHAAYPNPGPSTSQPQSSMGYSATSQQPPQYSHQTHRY
T3 sequence (P24863 whole entry partner): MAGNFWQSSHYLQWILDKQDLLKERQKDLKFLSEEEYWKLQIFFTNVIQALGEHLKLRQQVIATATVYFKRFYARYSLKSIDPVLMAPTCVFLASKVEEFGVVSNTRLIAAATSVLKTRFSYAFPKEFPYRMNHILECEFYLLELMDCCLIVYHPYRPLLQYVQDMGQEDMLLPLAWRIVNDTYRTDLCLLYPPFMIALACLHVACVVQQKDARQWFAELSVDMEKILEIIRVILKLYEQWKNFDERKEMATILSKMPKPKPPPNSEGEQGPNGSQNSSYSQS
T4 sequence (P35968 20-1356): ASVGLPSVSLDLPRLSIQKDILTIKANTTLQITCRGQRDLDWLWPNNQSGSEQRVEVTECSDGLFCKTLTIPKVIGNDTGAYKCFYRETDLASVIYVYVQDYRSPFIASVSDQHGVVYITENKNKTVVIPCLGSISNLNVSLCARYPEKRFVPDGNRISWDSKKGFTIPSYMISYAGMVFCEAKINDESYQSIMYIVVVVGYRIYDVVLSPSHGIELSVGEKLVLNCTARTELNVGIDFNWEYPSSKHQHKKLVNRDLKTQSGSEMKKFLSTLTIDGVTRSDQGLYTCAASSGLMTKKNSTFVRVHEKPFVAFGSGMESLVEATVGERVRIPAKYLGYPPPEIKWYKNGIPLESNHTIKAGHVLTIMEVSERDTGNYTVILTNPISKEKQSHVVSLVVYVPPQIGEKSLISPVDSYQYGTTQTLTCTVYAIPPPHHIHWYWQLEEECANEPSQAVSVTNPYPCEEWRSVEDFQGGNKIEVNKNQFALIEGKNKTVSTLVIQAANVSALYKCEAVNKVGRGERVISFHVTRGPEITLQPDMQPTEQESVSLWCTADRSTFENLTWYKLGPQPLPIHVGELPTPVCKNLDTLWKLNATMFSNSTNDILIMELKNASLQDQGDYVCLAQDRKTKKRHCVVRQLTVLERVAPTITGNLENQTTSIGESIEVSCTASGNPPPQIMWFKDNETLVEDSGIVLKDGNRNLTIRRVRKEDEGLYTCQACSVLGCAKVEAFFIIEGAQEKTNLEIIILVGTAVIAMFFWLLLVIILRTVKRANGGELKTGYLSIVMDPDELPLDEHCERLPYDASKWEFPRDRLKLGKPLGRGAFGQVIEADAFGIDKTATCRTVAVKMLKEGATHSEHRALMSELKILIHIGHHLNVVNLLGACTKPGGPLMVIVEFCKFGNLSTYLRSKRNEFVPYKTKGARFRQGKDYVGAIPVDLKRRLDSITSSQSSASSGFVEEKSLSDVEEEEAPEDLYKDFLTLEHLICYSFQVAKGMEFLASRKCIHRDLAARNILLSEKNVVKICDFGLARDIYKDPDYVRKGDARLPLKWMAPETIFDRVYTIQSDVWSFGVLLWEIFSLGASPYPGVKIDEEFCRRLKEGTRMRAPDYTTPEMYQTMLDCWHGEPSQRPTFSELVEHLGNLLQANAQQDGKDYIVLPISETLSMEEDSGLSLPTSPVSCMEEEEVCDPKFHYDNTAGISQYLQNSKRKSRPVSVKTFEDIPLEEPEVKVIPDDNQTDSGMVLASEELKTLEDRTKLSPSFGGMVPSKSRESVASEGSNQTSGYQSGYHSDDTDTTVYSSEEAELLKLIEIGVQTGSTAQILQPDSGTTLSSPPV

Regarding `c1ccc2c(-c3cnn4cc(-c5ccc(N6CCNCC6)cc5)cnc34)ccnc2c1` [LDN-193189, reference compound], the inhibition at 0.1 µM on CAMKK1 was 0.77%; at CDK4_cyclinD1 it was -10.1%; at CDK8_cyclinC, -1.99%; on KDR, -6.35%; on CLK2, 34.2%; on CSNK2A1, -10.9%. Also, the inhibition at 0.1 µM on MAP3K7 was 7.07%; at EPHA5, -0.32%; on DNAPK it was -29.6%; at GRK6 it was -1.81%; on EGFR, 2.46%; on DCLK2, 9.12%.
Consider `CN1CCc2cccc(c2)Nc2nccc(n2)N2CCCc3cc(ccc32)C1` [OD16], for which the inhibition at 0.1 µM at CAMKK1 was -1.72%; on CDK4_cyclinD1, 20.3%; at CDK8_cyclinC it was -16.6%; at KDR, 0.8%; on CLK2, -10%; on CSNK2A1, -9.27%. The inhibition at 0.1 µM on MAP3K7 is -6.98%; on EPHA5, -65.7%; at DNAPK it was -8.88%; on GRK6 it was -2.14%; on EGFR, -13%; at DCLK2, -2.18%.
As for `CN1CCC(=O)NCCNc2ccn3ncc(c3n2)-c2cccc(c2)C1` [OD29], the inhibition at 0.1 µM at CAMKK1 is -29.5%; at CDK4_cyclinD1 it was -13.8%; on CDK8_cyclinC, -9.32%; on KDR it was 37.6%; at CLK2, 7.62%; at CSNK2A1, -1.02%. Also, the inhibition at 0.1 µM at MAP3K7 is 11.4%; on EPHA5 it was 14.8%; at DNAPK, 12.9%; on GRK6 it was 0.04%; on EGFR it was -8.91%; on DCLK2, -15.9%.
